# Data: paper PMC4290489, “Identification of multiple salicylic acid-binding proteins using two high throughput screens” (Frontiers in Plant Science, 2015)
# Columns and labels:
# Assay type in all cases: binding
# GSR2 [1] = target: T1, GSR2 (Arabidopsis thaliana, UniProt Q8LCE1); experiment: UV photo-crosslinking, anti-SA immunoblot; details: 50 uM 4AzSA, PBS, on ice, 254 nm UV; covalent; competed by SA
# T1 construct: gene GLN1-2; N-terminal His6 (pET28a), from E. coli
# T1 sequence (Q8LCE1 1-356): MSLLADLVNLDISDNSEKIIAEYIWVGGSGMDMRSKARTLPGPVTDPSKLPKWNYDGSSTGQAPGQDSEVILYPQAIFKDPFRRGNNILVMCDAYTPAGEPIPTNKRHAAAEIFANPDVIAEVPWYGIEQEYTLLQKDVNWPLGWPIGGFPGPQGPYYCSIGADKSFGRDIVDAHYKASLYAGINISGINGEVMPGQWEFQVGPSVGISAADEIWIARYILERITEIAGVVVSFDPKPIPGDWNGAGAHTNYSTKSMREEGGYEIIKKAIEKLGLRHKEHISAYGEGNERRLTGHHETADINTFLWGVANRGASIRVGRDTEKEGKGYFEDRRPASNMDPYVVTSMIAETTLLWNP
# LOX2 [2] = target: T2, LOX2 (Arabidopsis thaliana, UniProt P38418); experiment: UV photo-crosslinking, anti-SA immunoblot; details: 50 uM 4AzSA, PBS, on ice, 254 nm UV; covalent; competed by SA
# T2 construct: N-terminal His6 (pET28a), from E. coli
# T2 sequence (P38418 57-896): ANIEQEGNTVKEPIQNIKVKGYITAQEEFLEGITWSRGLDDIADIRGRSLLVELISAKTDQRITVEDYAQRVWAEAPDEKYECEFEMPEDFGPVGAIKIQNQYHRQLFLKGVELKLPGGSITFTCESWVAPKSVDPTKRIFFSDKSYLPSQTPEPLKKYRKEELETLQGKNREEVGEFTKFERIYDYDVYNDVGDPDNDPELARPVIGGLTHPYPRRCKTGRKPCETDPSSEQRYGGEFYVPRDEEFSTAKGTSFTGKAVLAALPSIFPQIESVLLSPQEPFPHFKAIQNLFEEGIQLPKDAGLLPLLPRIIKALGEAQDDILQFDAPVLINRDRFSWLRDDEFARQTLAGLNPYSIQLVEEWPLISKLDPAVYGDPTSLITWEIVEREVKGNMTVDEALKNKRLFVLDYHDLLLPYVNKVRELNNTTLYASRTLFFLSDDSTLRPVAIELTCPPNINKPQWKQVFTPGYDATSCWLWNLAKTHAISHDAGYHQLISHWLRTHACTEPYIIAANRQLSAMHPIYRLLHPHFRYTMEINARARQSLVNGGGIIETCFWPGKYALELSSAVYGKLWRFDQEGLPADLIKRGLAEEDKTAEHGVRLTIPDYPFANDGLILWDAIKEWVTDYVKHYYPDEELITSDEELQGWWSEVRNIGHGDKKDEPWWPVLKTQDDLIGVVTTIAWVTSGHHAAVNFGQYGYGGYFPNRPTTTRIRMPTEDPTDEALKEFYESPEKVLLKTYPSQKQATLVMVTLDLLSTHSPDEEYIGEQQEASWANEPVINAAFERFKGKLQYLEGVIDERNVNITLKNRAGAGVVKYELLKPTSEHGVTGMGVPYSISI
# NPR1 = target: T3, NPR1 (Arabidopsis thaliana, UniProt P93002); experiment: UV photo-crosslinking, anti-SA immunoblot; details: 50 uM 4AzSA, PBS, on ice, 254 nm UV; covalent; competed by SA
# T3 construct: N-terminal His6-MBP fusion (pET-MALHT), from E. coli, Ni-NTA and gel filtration
# T3 sequence (P93002 1-593): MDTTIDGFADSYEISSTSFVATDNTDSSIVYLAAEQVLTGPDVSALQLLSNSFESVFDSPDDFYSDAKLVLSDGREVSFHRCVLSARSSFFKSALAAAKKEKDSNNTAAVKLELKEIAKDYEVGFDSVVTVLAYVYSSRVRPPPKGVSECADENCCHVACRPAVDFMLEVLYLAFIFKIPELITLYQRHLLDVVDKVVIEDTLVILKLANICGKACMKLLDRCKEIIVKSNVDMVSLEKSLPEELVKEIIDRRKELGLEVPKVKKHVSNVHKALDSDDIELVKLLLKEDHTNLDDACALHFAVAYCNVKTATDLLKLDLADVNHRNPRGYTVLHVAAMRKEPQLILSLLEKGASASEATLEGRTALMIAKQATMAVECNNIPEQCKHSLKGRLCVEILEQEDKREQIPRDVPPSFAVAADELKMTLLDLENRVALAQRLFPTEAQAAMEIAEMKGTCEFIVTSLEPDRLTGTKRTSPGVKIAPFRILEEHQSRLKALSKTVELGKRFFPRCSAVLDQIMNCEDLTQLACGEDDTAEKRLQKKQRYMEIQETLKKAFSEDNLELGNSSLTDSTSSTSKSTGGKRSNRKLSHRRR
# SHM4 [3] = target: T4, SHM4 (Arabidopsis thaliana, UniProt O23254); experiment: UV photo-crosslinking, anti-SA immunoblot; details: 50 uM 4AzSA, PBS, on ice, 254 nm UV; covalent; competed by SA
# T4 construct: N-terminal His6 (pET28a), from E. coli
# T4 sequence (O23254 1-471): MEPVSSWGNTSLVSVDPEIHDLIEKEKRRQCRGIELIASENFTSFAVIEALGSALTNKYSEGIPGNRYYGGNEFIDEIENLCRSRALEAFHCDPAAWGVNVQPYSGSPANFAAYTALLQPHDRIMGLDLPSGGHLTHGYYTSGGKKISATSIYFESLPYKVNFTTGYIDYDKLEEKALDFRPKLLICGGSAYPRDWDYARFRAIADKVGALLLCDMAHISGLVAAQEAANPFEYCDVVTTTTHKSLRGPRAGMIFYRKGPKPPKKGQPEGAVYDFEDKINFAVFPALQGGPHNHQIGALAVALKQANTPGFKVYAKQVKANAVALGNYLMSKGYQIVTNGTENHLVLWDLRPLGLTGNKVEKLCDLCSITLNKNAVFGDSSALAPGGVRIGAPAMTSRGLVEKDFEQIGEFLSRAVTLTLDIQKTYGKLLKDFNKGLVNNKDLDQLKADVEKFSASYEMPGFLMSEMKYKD
# SHM4 [4] = target: T4, SHM4; experiment: SPR competition on 3AESA chip; competition of 4AzSA photo-crosslinking; details: 1-5 mM SA, HBS-EP pH 7.4 (SPR); competes with 3AESA and 4AzSA
# GSR2 [5] = target: T1, GSR2; experiment: as above; details: 1-5 mM SA, HBS-EP pH 7.4 (SPR); competes with 3AESA and 4AzSA
# LOX2 [6] = target: T2, LOX2; experiment: as above; details: 1-5 mM SA, HBS-EP pH 7.4 (SPR); competes with 3AESA and 4AzSA
# RBCS1A = target: T5, RBCS1A (Arabidopsis thaliana, UniProt P10795); experiment: as above; details: 1-5 mM SA, HBS-EP pH 7.4 (SPR); competes with 3AESA and 4AzSA
# T5 construct: gene RBCS-1A; small subunit alone, N-terminal His6 (pET28a), from E. coli
SMILES,"UV photo-crosslinking, anti-SA immunoblot (GSR2 [1])","UV photo-crosslinking, anti-SA immunoblot (LOX2 [2])","UV photo-crosslinking, anti-SA immunoblot (NPR1)","UV photo-crosslinking, anti-SA immunoblot (SHM4 [3])",SPR competition on 3AESA chip; competition of 4AzSA photo-crosslinking (SHM4 [4]),SPR competition on 3AESA chip; competition of 4AzSA photo-crosslinking (GSR2 [5]),SPR competition on 3AESA chip; competition of 4AzSA photo-crosslinking (LOX2 [6]),SPR competition on 3AESA chip; competition of 4AzSA photo-crosslinking (RBCS1A)
[N-]=[N+]=Nc1ccc(C(=O)O)c(O)c1 [4AzSA],"bound 3AESA and crosslinked to 4AzSA in an SA-inhibitable manner, indicating that they are SABPs",These five proteins also bound and crosslinked to 4AzSA,NPR1 bound and was crosslinked to 4AzSA; this crosslinking was suppressed by increasing levels of SA,These five proteins also bound and crosslinked to 4AzSA,,,,
O=C(O)c1ccccc1O [SA],,,,,"SA competes with 3AESA and 4AzSA for binding by TRX-m1, TPPII, SHM4, and LOX2","bound 3AESA and crosslinked to 4AzSA in an SA-inhibitable manner, indicating that they are SABPs","SA competes with 3AESA and 4AzSA for binding by TRX-m1, TPPII, SHM4, and LOX2","bound 3AESA and crosslinked to 4AzSA in an SA-inhibitable manner, indicating that they are SABPs"
